Results: ChEMBL document CHEMBL3045810, “Synthesis and evaluation of 4-(substituted)-acetylamino-3-mercapto-5-(4-substituted) phenyl-1,2,4-triazole derivatives as antimicrobial agents” (2012)
Activity calls are given as the source filed them. The calls are words filed in the database; no cut-off is given here.

Experiments:
[1] = system: Bacillus subtilis; assay: Antibacterial activity against Bacillus subtilis ATCC 6633 at 30 ug/ml after 24 hr by paper disk diffusion method; type: functional; details: ATCC 6633, 24 h, read-out: DIZ
[2] = system: Aspergillus niger; assay: Fungicidal activity against Aspergillus niger MTCC 3323; type: functional, organism-based
[3] = system: Aspergillus niger; assay: Antifungal activity against Aspergillus niger MTCC 3323 at 50 ug/ml by paper disk diffusion method; type: functional; details: read-out: DIZ
[4] = system: Staphylococcus aureus; assay: Antibacterial activity against Staphylococcus aureus ATCC 25923 at 70 ug/ml after 24 hr by paper disk diffusion method; type: functional; details: ATCC 25923, 24 h, read-out: DIZ
[5] = system: Bacillus subtilis; assay: Bactericidal against Bacillus subtilis ATCC 6633; type: functional, organism-based
[6] = system: Candida albicans; assay: Antifungal activity against Candida albicans MTCC 227 at 50 ug/ml by paper disk diffusion method; type: functional; details: read-out: DIZ
[7] = system: Bacillus subtilis; assay: Antibacterial activity against Bacillus subtilis ATCC 6633 at 50 ug/ml after 24 hr by paper disk diffusion method; type: functional; details: ATCC 6633, 24 h, read-out: DIZ
[8] = system: Candida albicans; assay: Antifungal activity against Candida albicans MTCC 227 at 30 ug/ml by paper disk diffusion method; type: functional; details: read-out: DIZ
[9] = system: Staphylococcus aureus; assay: Antibacterial activity against Staphylococcus aureus ATCC 25923 at 30 ug/ml after 24 hr by paper disk diffusion method; type: functional; details: ATCC 25923, 24 h, read-out: DIZ
[10] = system: Escherichia coli; assay: Antibacterial activity against Escherichia coli ATCC 8793 at 70 ug/ml after 24 hr by paper disk diffusion method; type: functional; details: ATCC 8793, 24 h, read-out: DIZ
[11] = system: Fusarium oxysporum; assay: Fungicidal activity against Fusarium oxysporum MTCC 2087; type: functional, organism-based
[12] = system: Candida albicans; assay: Antifungal activity against Candida albicans MTCC 227 at 70 ug/ml by paper disk diffusion method; type: functional; details: read-out: DIZ
[13] = system: Fusarium oxysporum; assay: Antifungal activity against Fusarium oxysporum MTCC 2087 at 70 ug/ml by paper disk diffusion method; type: functional; details: read-out: DIZ
[14] = system: Pseudomonas aeruginosa; assay: Antibacterial activity against Pseudomonas aeruginosa ATCC 27853 at 30 ug/ml after 24 hr by paper disk diffusion method; type: functional; details: ATCC 27853, 24 h, read-out: DIZ
[15] = system: Escherichia coli; assay: Antibacterial activity against Escherichia coli ATCC 8793 at 50 ug/ml after 24 hr by paper disk diffusion method; type: functional; details: ATCC 8793, 24 h, read-out: DIZ
[16] = system: Aspergillus niger; assay: Antifungal activity against Aspergillus niger MTCC 3323 at 70 ug/ml by paper disk diffusion method; type: functional; details: read-out: DIZ
[17] = system: Fusarium oxysporum; assay: Antifungal activity against Fusarium oxysporum MTCC 2087 at 50 ug/ml by paper disk diffusion method; type: functional; details: read-out: DIZ
[18] = system: Escherichia coli; assay: Antibacterial activity against Escherichia coli ATCC 8793 at 30 ug/ml after 24 hr by paper disk diffusion method; type: functional; details: ATCC 8793, 24 h, read-out: DIZ
[19] = system: Pseudomonas aeruginosa; assay: Bactericidal activity against Pseudomonas aeruginosa ATCC 27853; type: functional, organism-based
[20] = system: Staphylococcus aureus; assay: Bactericidal activity against Staphylococcus aureus ATCC 25923; type: functional, organism-based
[21] = system: Escherichia coli; assay: Bactericidal activity against Escherichia coli ATCC 8793; type: functional, organism-based
[22] = system: Bacillus subtilis; assay: Antibacterial activity against Bacillus subtilis ATCC 6633 at 70 ug/ml after 24 hr by paper disk diffusion method; type: functional; details: ATCC 6633, 24 h, read-out: DIZ
[23] = system: Candida albicans; assay: Fungicidal activity against Candida albicans MTCC 227; type: functional, organism-based
[24] = system: Aspergillus niger; assay: Antifungal activity against Aspergillus niger MTCC 3323 at 30 ug/ml by paper disk diffusion method; type: functional; details: read-out: DIZ
[25] = system: Staphylococcus aureus; assay: Antibacterial activity against Staphylococcus aureus ATCC 25923 at 50 ug/ml after 24 hr by paper disk diffusion method; type: functional; details: ATCC 25923, 24 h, read-out: DIZ
[26] = system: Pseudomonas aeruginosa; assay: Antibacterial activity against Pseudomonas aeruginosa ATCC 27853 at 50 ug/ml after 24 hr by paper disk diffusion method; type: functional; details: ATCC 27853, 24 h, read-out: DIZ
[27] = system: Pseudomonas aeruginosa; assay: Antibacterial activity against Pseudomonas aeruginosa ATCC 27853 at 70 ug/ml after 24 hr by paper disk diffusion method; type: functional; details: ATCC 27853, 24 h, read-out: DIZ
[28] = system: Fusarium oxysporum; assay: Antifungal activity against Fusarium oxysporum MTCC 2087 at 30 ug/ml by paper disk diffusion method; type: functional; details: read-out: DIZ

Structure (SMILES)	zone of inhibition at 30 µg/mL [1] [mm]	zone of inhibition at 50 µg/mL [3] [mm]	zone of inhibition at 70 µg/mL [4] [mm]	zone of inhibition at 50 µg/mL [6] [mm]	zone of inhibition at 50 µg/mL [7] [mm]	zone of inhibition at 30 µg/mL [8] [mm]	zone of inhibition at 30 µg/mL [9] [mm]	zone of inhibition at 70 µg/mL [10] [mm]	zone of inhibition at 70 µg/mL [12] [mm]	zone of inhibition at 70 µg/mL [13] [mm]	zone of inhibition at 30 µg/mL [14] [mm]	zone of inhibition at 50 µg/mL [15] [mm]	zone of inhibition at 70 µg/mL [16] [mm]	zone of inhibition at 50 µg/mL [17] [mm]	zone of inhibition at 30 µg/mL [18] [mm]	zone of inhibition at 70 µg/mL [22] [mm]	zone of inhibition at 30 µg/mL [24] [mm]	zone of inhibition at 50 µg/mL [25] [mm]	zone of inhibition at 50 µg/mL [26] [mm]	zone of inhibition at 30 µg/mL [28] [mm]	further results
CCN(CC)CC(=O)Nn1c(S)nnc1-c1ccc(C)cc1	6.4	9.23	8.2	8.7	7.43	7.13	6.36	9	9.23	7.33	7.3	8.4	10.2	6.23	7.3	8.26	8.2	7.4	8.4	6.03	Activity [2]: inactive; Activity [5]: Active; Activity [11]: inactive; Activity [19]: Active; Activity [20]: Active; Activity [21]: Active; Activity [23]: inactive; zone of inhibition at 70 µg/mL [27]: 9 mm
CCCCN(C)CC(=O)Nn1c(S)nnc1-c1ccc(OC)cc1	9.27	11.1	13.5	12.2	10.2	11.1	10.2	9.6	14.2	7.23	9.2	8.63	13.2	6.26	7.2	11.2	10.6	11	10.4	6.16	Activity [2]: Active; Activity [5]: Active; Activity [11]: Active; Activity [19]: Active; Activity [20]: Active; Activity [21]: Active; Activity [23]: Active; zone of inhibition at 70 µg/mL [27]: 12.2 mm
CCCN(CCC)CC(=O)Nn1c(S)nnc1-c1ccc(OC)cc1	10.2	15.2	14.8	13.2	11	12.5	12.7	14.2	15.1	12.2	12.2	12.2	17	11.1	11.1	12.8	14	13.2	13.2	10.2	Activity [2]: Active; Activity [5]: Active; Activity [11]: Active; Activity [19]: Active; Activity [20]: Active; Activity [21]: Active; Activity [23]: Active; zone of inhibition at 70 µg/mL [27]: 14.1 mm
CCN(CC)CC(=O)Nn1c(S)nnc1-c1ccc(OC)cc1	7.23	10.2	9.36	9.13	8.53	8.1	7.63	11.2	10.4	9.06	8.26	10.1	11.1	8.21	9.2	9.03	9.13	8.33	9.56	7.26	Activity [2]: inactive; Activity [5]: Active; Activity [11]: inactive; Activity [19]: Active; Activity [20]: Active; Activity [21]: Active; Activity [23]: inactive; zone of inhibition at 70 µg/mL [27]: 10.8 mm
CCCCCN(CCCCC)CC(=O)Nn1c(S)nnc1-c1ccc(C)cc1	6.46	11.3	8.16	8.1	7.2	7.26	6.03	8.13	9.23	9.13	7.13	7.16	12.1	8.23	6.26	8.23	9.06	7.1	8.13	7.07	Activity [2]: inactive; Activity [5]: Active; Activity [11]: inactive; Activity [19]: Active; Activity [20]: Active; Activity [21]: Active; Activity [23]: inactive; zone of inhibition at 70 µg/mL [27]: 9.17 mm
CCCCN(C)CC(=O)Nn1c(S)nnc1-c1ccc(C)cc1	7.43	8.26	9.26	9.23	8.2	8.16	7.4	9.2	10.1	8.13	8.2	8.56	9.17	7.2	7.26	9.23	7	8.23	9.33	6.03	zone of inhibition at 70 µg/mL [27]: 10.3 mm
CN[C@H](CC(C)C)C(=O)N[C@H]1C(=O)N[C@@H](CC(N)=O)C(=O)N[C@H]2C(=O)N[C@H]3C(=O)N[C@H](C(=O)N[C@H](C(=O)O)c4cc(O)cc(O)c4-c4cc3ccc4O)[C@H](O)c3ccc(c(Cl)c3)Oc3cc2cc(c3O[C@@H]2O[C@H](CO)[C@@H](O)[C@H](O)[C@H]2O[C@H]2C[C@](C)(N)[C@H](O)[C@H](C)O2)Oc2ccc(cc2Cl)[C@H]1O [VANCOMYCIN]	17.4						18.2														
Clc1ccccc1C(c1ccccc1)(c1ccccc1)n1ccnc1 [CLOTRIMAZOLE]						21.9											22.6			19.3	
NCC[C@H](O)C(=O)N[C@@H]1C[C@H](N)[C@@H](O[C@H]2O[C@H](CN)[C@@H](O)[C@H](O)[C@H]2O)[C@H](O)[C@H]1O[C@H]1O[C@H](CO)[C@@H](O)[C@H](N)[C@H]1O [AMIKACIN]											22.1				21.3						
